Reference: patent US5037578A, “O,O'-bridged oligophenylene laser dyes and dyestuff lasers and method of lasing therewith” (Exciton Chemical Company, priority 1990, dated 1991)
Converted amounts (≈) assume the structure as drawn. “And” between values parts separate entries of the source, which are not always exact repeats. Identical values can stand only once. Blank lines part the entries; values can stand above or below the compound they belong to.

What was measured:
[1] = Solubilities of o,o'-bridged oligophenylenes in laser solvents at 21° C.; type: physicochemical; conditions: for Solubility: 21° C.; for Solubility compared with 2,2'-bifluorene: in solvents (Table I)
Excerpt: It is further discovered that when substituent X of the bridged biphenyl moiety is a carbon atom which is free of benzylic hydrogens, the laser dye is relatively less reactive and relatively more soluble. In other words, it has been realized that the absence of benzylic hydrogens from the bridged carbon substituent, that is, the carbon substituent that is bonded directly to the phenyl moieties to form the bridge, renders the organic laser dyes of the present invention less reactive and more soluble. In view of the present disadvantages concerning the solubility of organic laser dyes available hitherto, this is quite significant.

[2] = Fluorescence emission spectrum and Fluorescence Quantum Efficiency; type: physicochemical; conditions: for Fluorescence emission intensity, first peak / Fluorescence emission intensity, second peak / Fluorescence emission peak, first / Fluorescence emission peak, second: slits 2 nm
Excerpt: The fluorescence emission spectrum for the dye 9,9-dipropylfluorene as illustrated in FIG. 1 was detected on a Perkin-Elmer MPF-44A, the slits were set at 2 nm and the excitation light was at 265 nm. The Fluorescence Quantum Efficiency (FQE) was about the same as that of fluorene - 55%; and the fluorescence emission peaks at 306 nm(intensity 86) and […](intensity 67) were also similar to those of fluorene [the fluorescence emission spectrum for fluorene as illustrated in FIG. 5 was also detected on a Perkin-Elmer MPF-44A, the slits were set at 2 nm and the excitation light was at 265 nm and the fluorescence emission peaks for fluorene are at 303 nm(intensity 93) and 311 nm(intensity 73)].
This dye had two fluorescence peaks of almost equal intensity at 360 nm(intensity 33) and 378 nm(intensity 28) as illustrated in FIG. 2. […] The fluorescence emission spectrum of the dye 9,9,9',9'-tetrapropyl-2,2'-bifluorene was detected on a Perkin-Elmer MPF-44A, the slits were set at 2 nm and the excitation light was at 331 nm.
This dye had fluorescence peaks at 324 nm(intensity 90) and 338 nm(intensity 76) and a reported fluorescence quantum yield of 100% in cyclohexane as illustrated in FIG. 3. […] The fluorescence emission spectrum for the dye 3-phenyldibenzofuran as illustrated in FIG. 3 was detected on a Perkin-Elmer MPF-44A, the slits were set at 2 nm and the excitation light was at 301 nm.
The dye, 3,3'-bi(dibenzofuran), was prepared in accordance with the process disclosed in H.O. Wirth, G. Waese and W. Kern: Synthese Und Eigenschaften Von: Oxydo-p-oligophenylenen. Makromol. Chem. 86: 139(1965) which is incorporated herein in its entirety by reference, and was purified by extraction from Brockmann Activity I alumina with chloroform in an Ace-Kauffman column to give a white solid, mp 249.5°-250.5° C. (lit.mp 252.5° C.). This dye had two fluorescence peaks of almost equal intensity at 353 nm(intensity 47) and 369 nm(intensity 30) in cyclohexane as illustrated in FIG. 4.

[3] = cyclohexane; reported; cited from earlier work

Compound: CCCC1(CCC)c2ccccc2-c2ccc(-c3ccc4c(c3)C(CCC)(CCC)c3ccccc3-4)cc21 [9,9,9',9'-tetrapropyl-2,2'-bifluorene]
Solubility ([1]; 100% ethanol): 7.8 × 10^-4 M and 0.39 g/l
Solubility ([1]; Methanol): 3.4 × 10^-4 M and 0.17 g/l
Solubility ([1]; cyclohexane): 2.0 × 10^-2 M and 10 g/l
Solubility ([1]; dioxane): 6.5 × 10^-3 M and 3.2 g/l
Solubility compared with 2,2'-bifluorene [1]: more soluble than 2,2'-bifluorene
Fluorescence emission intensity, first peak ([2]; excitation 331 nm): 33
Fluorescence emission intensity, second peak ([2]; excitation 331 nm): 28
Fluorescence emission peak, first ([2]; excitation 331 nm): 360 nm
Fluorescence emission peak, second ([2]; excitation 331 nm): 378 nm

Compound: CCCC1(CCC)c2ccccc2-c2ccccc21 [9,9-dipropylfluorene]
Fluorescence Quantum Efficiency (FQE) [2]: ~55%
Fluorescence emission intensity, first peak ([2]; excitation 265 nm): 86
Fluorescence emission intensity, second peak ([2]; excitation 265 nm): 67
Fluorescence emission peak, first ([2]; excitation 265 nm): 306 nm

Compound: c1ccc2c(c1)oc1cc(-c3ccc4c(c3)oc3ccccc34)ccc12 [3,3'-bi(dibenzofuran)]
Solubility ([1]; 95% ethanol): 1.0 × 10^-2 M and 2.5 g/l
Solubility ([1]; 100% ethanol): 6.3 × 10^-5 M and 0.021 g/l
Solubility ([1]; DMF): 2.5 × 10^-3 M and 0.84 g/l
Solubility ([1]; Methanol): 2.1 × 10^-5 M and 0.007 g/l
Solubility ([1]; Toluene): 2.4 × 10^-3 M and 0.8 g/l
Solubility ([1]; cyclohexane): 9.0 × 10^-5 M and 0.030 g/l
Solubility ([1]; dioxane): 1.3 × 10^-3 M and 0.43 g/l
Solubility compared with 2,2'-bifluorene [1]: greater than that of 2,2'-bifluorene
Fluorescence emission spectrum compared with dye of Example 2 [2]: almost superimposable on that of the dye discussed in Example 2
Fluorescence emission intensity, first peak ([2]; excitation 323 nm, cyclohexane): 47
Fluorescence emission intensity, second peak ([2]; excitation 323 nm, cyclohexane): 30
Fluorescence emission peak, first ([2]; excitation 323 nm, cyclohexane): 353 nm
Fluorescence emission peak, second ([2]; excitation 323 nm, cyclohexane): 369 nm

Compound: CCn1c2ccccc2c2ccc(-c3ccc4c5ccccc5n(CC)c4c3)cc21 [9,9'-diethyl-2,2'-bicarbazole]
Violet fluorescence compared with compounds of Examples 2 and 4 ([2]; in alcohols): brighter violet fluorescence in alcohols than the compounds of Examples 2 and 4

Further lines, with some results ahead:

Solubility ([1]; 50% ethanol): 8.4 × 10^-3 M and 2.0 g/l
Solubility ([1]; 95% ethanol): 1.1 × 10^-2 M and 2.7 g/l
Solubility ([1]; 100% ethanol): 1.6 × 10^-2 M and 3.9 g/l
Solubility ([1]; Methanol): 1.2 × 10^-2 M and 2.9 g/l
Solubility ([1]; cyclohexane): > 2.44 g/l and > 1.0 × 10^-2 M
Solubility compared with p-terphenyl ([1]; in all cases (See Table I)): much greater than that of p-terphenyl
Solubility compared with p-terphenyl ([1]; methanol, 50% ethanol, 95% ethanol and absolute ethanol): much more soluble
Fluorescence emission intensity, first peak ([2]; excitation 301 nm, cyclohexane): 90
Fluorescence emission intensity, second peak ([2]; excitation 301 nm, cyclohexane): 76
Fluorescence emission peak, first ([2]; excitation 301 nm, cyclohexane): 324 nm
Fluorescence emission peak, second ([2]; excitation 301 nm, cyclohexane): 338 nm
FQE in methanol compared with cyclohexane ([2]; methanol): the same in methanol as in cyclohexane
Compound: c1ccc(-c2ccc3c(c2)oc2ccccc23)cc1 [3-phenyldibenzofuran]
Fluorescence quantum yield [3]: 100%

Solubility ([1]; Toluene): ~1.3 × 10^-3 M and ~0.4 g/l
Compound: c1ccc(-c2ccc(-c3ccc(-c4ccccc4)cc3)cc2)cc1 [quaterphenyl, reference compound]

Fluorescence Quantum Efficiency (FQE) [2]: 55%
Fluorescence emission intensity, first peak ([2]; excitation 265 nm): 93
Fluorescence emission intensity, second peak ([2]; excitation 265 nm): 73
Fluorescence emission peak, first ([2]; excitation 265 nm): 303 nm
Fluorescence emission peak, second ([2]; excitation 265 nm): 311 nm
Compound: c1ccc2c(c1)Cc1ccccc1-2 [fluorene, reference compound]

Solubility ([1]; 1,2-dichloroethane): 1.0 × 10^-3 M and 0.33 g/l
Solubility ([1]; 95% ethanol): 0.4 g/L (≈ 1210 µM)
Solubility ([1]; 100% ethanol): 2.3 × 10^-5 M and 0.0077 g/l
Solubility ([1]; Toluene): 1.3 × 10^-3 M and 0.4 g/l
Solubility ([1]; cyclohexane): 3.0 × 10^-5 M and 0.01 g/l
Compound: c1ccc2c(c1)Cc1cc(-c3ccc4c(c3)Cc3ccccc3-4)ccc1-2 [2,2'-bifluorene]
